Results: publication PMC6072100, “Exploring the links between peptoid antibacterial activity and toxicity” (MedChemComm, 2017)
Where “and” joins values, the source holds several entries; their conditions need not be identical. Identical values can stand only once. Like-named read-outs stand apart in the source and are kept apart here. Square brackets hold non-standard residues; d marks the D form. Peptide text beside a SMILES is read from it. Gly(N-2-aminoethyl) = NCCNCC(=O)O; Nspe = C[C@H](NCC(=O)O)c1ccccc1; Nlys = NCCCCNCC(=O)O

Key:
Format in all cases: cell-based
[1] = test system: Staphylococcus epidermidis (laboratory strain from clinical isolate); details: for MIC S. epidermidis: 16 h
How it was run: (§1)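 Peptoids (DMSO stock, final 2–100 μM, two-fold steps) were tested in triplicate against inocula at 0.5 McFarland (A650 0.07) diluted ten-fold in Iso-sensitest broth. Plates incubated 16 h at 37 °C, shaken; MIC from absorbance. Controls: ampicillin, DMSO series, sterile broth.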

[2] = test system: Staphylococcus aureus (3R7089 strain Oxford/ATCC9144)
How it was run: as §1

[3] = test system: Pseudomonas aeruginosa PA01 (ATCC 15692)
How it was run: as §1

[4] = test system: Escherichia coli K-12 wild-type strain (W3110/ATCC27325); details: for MIC E. coli: lowest concentration completely inhibiting growth, 37 °C, 16 h, range 2–100 μM
How it was run: as §1

[5] = lowest concentration completely inhibiting growth, 37 °C, range 2–100 μM
[6] = lowest concentration completely inhibiting growth, 37 °C, 16 h, range 2–100 μM

Row | SMILES | MIC S. epidermidis [1, 5] | MIC S. aureus [2, 6] | MIC P. aeruginosa [3, 6] | MIC E. coli [4] | sensitivity of S. epidermidis (in words) ([1]; compared with the other bacteria tested) | MIC S. aureus ([2]; ATCC9144, 16 h) | MIC P. aeruginosa ([3]; ATCC 15692, 16 h) | activity against E. coli (in words) [4] | MIC S. epidermidis ([1]; laboratory strain from clinical isolate) | activity against P. aeruginosa (in words) [3]
1 | C[C@@H](c1ccccc1)N(CC(N)=O)C(=O)CN(C(=O)CN(CCCCN)C(=O)CN(C(=O)CN(C(=O)CN(CCCCN)C(=O)CN(C(=O)CN(C(=O)CNCCCCN)[C@@H](C)c1ccccc1)[C@@H](C)c1ccccc1)[C@@H](C)c1ccccc1)[C@@H](C)c1ccccc1)[C@@H](C)c1ccccc1 [Peptoid 14, (NLysNspeNspe)3] (H-[Nlys][Nspe][Nspe][Nlys][Nspe][Nspe][Nlys][Nspe][Nspe]-NH2) | 2 µM | 2 µM | >100 µM | 13 µM |  |  |  |  |  | 
2 | C[C@@H](c1ccccc1)N(CC(N)=O)C(=O)CN(C(=O)CN(CCCCN)C(=O)CN(C(=O)CN(C(=O)CNCCCCN)[C@@H](C)c1ccccc1)[C@@H](C)c1ccccc1)[C@@H](C)c1ccccc1 [Peptoid 15, (NLysNspeNspe)2] (H-[Nlys][Nspe][Nspe][Nlys][Nspe][Nspe]-NH2) | 25 µM | 100 µM | 100 µM | >100 µM | some increased sensitivity | >100 µM | >100 µM |  |  | 
3 | C[C@@H](c1ccccc1)N(CC(N)=O)C(=O)CN(C(=O)CN(CCN)C(=O)CN(C(=O)CN(C(=O)CN(CCN)C(=O)CN(C(=O)CN(C(=O)CN(CCN)C(=O)CN(C(=O)CN(C(=O)CNCCN)[C@@H](C)c1ccccc1)[C@@H](C)c1ccccc1)[C@@H](C)c1ccccc1)[C@@H](C)c1ccccc1)[C@@H](C)c1ccccc1)[C@@H](C)c1ccccc1)[C@@H](C)c1ccccc1 [Peptoid 16, (NaeNspeNspe)4] (H-[Gly(N-2-aminoethyl)][Nspe][Nspe][Gly(N-2-aminoethyl)][Nspe][Nspe][Gly(N-2-aminoethyl)][Nspe][Nspe][Gly(N-2-aminoethyl)][Nspe][Nspe]-NH2) | 2 µM | 2 µM | 50 µM | 100 µM and > 100 µM |  |  |  | negligible activity |  | 
4 | C[C@@H](c1ccccc1)N(CC(N)=O)C(=O)CN(C(=O)CN(CCN)C(=O)CN(C(=O)CN(C(=O)CN(CCN)C(=O)CN(C(=O)CN(C(=O)CNCCN)[C@@H](C)c1ccccc1)[C@@H](C)c1ccccc1)[C@@H](C)c1ccccc1)[C@@H](C)c1ccccc1)[C@@H](C)c1ccccc1 [Peptoid 17, (NaeNspeNspe)3] | 13 µM | 2 µM | 100 µM and > 100 µM | 25 µM |  |  |  |  |  | 
5 | C[C@@H](c1ccccc1)N(CC(N)=O)C(=O)CN(C(=O)CN(CCN)C(=O)CN(C(=O)CN(C(=O)CNCCN)[C@@H](C)c1ccccc1)[C@@H](C)c1ccccc1)[C@@H](C)c1ccccc1 [Peptoid 18, (NaeNspeNspe)2] | 100 µM | 100 µM | 100 µM | >100 µM |  | >100 µM | >100 µM |  | >100 µM | 
6 | COc1ccc(CN(CC(N)=O)C(=O)CN(Cc2ccc(OC)cc2)C(=O)CN(CCCCN)C(=O)CN(Cc2ccc(OC)cc2)C(=O)CN(Cc2ccc(OC)cc2)C(=O)CN(CCCCN)C(=O)CN(Cc2ccc(OC)cc2)C(=O)CN(Cc2ccc(OC)cc2)C(=O)CN(CCCCN)C(=O)CN(Cc2ccc(OC)cc2)C(=O)CN(Cc2ccc(OC)cc2)C(=O)CNCCCCN)cc1 [Peptoid 19, (NLysNpmbNpmb)4] | 2 µM | 3 µM | 100 µM | >100 µM |  |  | >100 µM | negligible effect |  | negligible effect
